Measurements as given in US10577363B2, “Substituted piperidine compounds” (EPIZYME, INC., priority 2014, dated 2020).

Tests used:
SMYD3 [1] = molecular target: T1, SMYD3 (Homo sapiens (Human), UniProt Q9H7B4); experiment: SMYD3 biochemical assay (SPA, 3H-SAM methylation of MEKK2 protein substrate); details: read-out: SMYD3 Biochem IC50*
How it was run: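 Methylation of N-terminally GST-tagged MEKK2 by untagged full-length human SMYD3, using 3H-SAM, in pH 8.0 Tris buffer with TCEP, BSG and Tween 20; enzyme and compound sat 30 min at room temperature before substrate addition. Stopped with 100 uM (final) cold SAM; incorporation read by scintillation proximity as dpm/cpm.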

SMYD3 [2] = molecular target: T1, SMYD3; experiment: SMYD3 cell assay (Trimethyl-MEKK2 In-Cell Western in 293T/17 cells); assay type: cell-based; details: read-out: SMYD3 Cell IC50*
How it was run: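 In-Cell Western readout: methanol-fixed cells stained for trimethyl-MEKK2 and flag tag, ratio per well normalized to DMSO and background controls.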

T1 sequence (Q9H7B4 whole entry): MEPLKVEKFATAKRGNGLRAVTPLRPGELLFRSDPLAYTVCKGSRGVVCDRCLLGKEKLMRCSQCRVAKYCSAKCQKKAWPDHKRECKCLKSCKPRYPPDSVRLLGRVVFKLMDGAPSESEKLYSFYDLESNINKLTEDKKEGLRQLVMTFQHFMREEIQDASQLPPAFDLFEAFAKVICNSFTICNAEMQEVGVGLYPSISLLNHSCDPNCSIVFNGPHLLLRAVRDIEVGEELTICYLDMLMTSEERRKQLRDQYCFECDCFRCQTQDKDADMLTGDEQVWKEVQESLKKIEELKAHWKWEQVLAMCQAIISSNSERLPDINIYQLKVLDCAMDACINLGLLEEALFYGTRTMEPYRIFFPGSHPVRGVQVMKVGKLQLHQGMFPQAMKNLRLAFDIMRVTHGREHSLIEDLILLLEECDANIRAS

SMILES | IC50 (SMYD3 [1]) | IC50 (SMYD3 [2])
O=C(N[C@H]1C[C@H]2CC[C@@H](C1)N2S(=O)(=O)[C@H]1CC[C@@H](NCCO)CC1)c1cc(C2CC2)on1 [compound 767, 5-cyclopropyl-N-((1R,3R,5S)-8-(((1S,4S)-4-((2-hydroxyethyl)amino)cyclohexyl)sulfonyl)-8-azabicyclo[3.2.1]octan-3-yl)isoxazole-3-carboxamide] | 0.4 nM | 19.4 nM
O=C(N[C@H]1C[C@H]2CC[C@@H](C1)N2S(=O)(=O)[C@H]1CC[C@H](NCCO)CC1)c1cc(C2CC2)on1 [compound 768, 5-cyclopropyl-N-((1R,3R,5S)-8-(((1R,4R)-4-((2-hydroxyethyl)amino)cyclohexyl)sulfonyl)-8-azabicyclo[3.2.1]octan-3-yl)isoxazole-3-carboxamide] | 0.71 nM | 34.7 nM
O=C(N[C@H]1C[C@H]2CC[C@@H](C1)N2S(=O)(=O)N1CC2(CCN(CCc3ccccc3)CC2)C1)c1cc(C2CC2)on1 [compound 769, 5-cyclopropyl-N-((1R,3r,5S)-8-((7-phenethyl-2,7-diazaspiro[3.5]nonan-2-yl)sulfonyl)-8-azabicyclo[3.2.1]octan-3-yl)isoxazole-3-carboxamide] | 0.76 nM | 17.9 nM
CN(C)[C@H]1CC[C@@H](S(=O)(=O)N2[C@@H]3CC[C@H]2C[C@@H](NC(=O)c2cc(C4CC4)on2)C3)CC1 [compound 771, 5-cyclopropyl-N-((1R,3R,5S)-8-(((1s,4S)-4-(dimethylamino)cyclohexyl)sulfonyl)-8-azabicyclo[3.2.1]octan-3-yl)isoxazole-3-carboxamide] | 0.94 nM | 25.6 nM
C[C@H]1C[C@@H](NC(=O)c2cc(C3CC3)on2)CCN1S(=O)(=O)C[C@H]1CC[C@H](N)C1 [compound 772, N-((2S,4S)-1-((((1S,3S)-3-aminocyclopentyl)methyl)sulfonyl)-2-methylpiperidin-4-yl)-5-cyclopropylisoxazole-3-carboxamide] | 0.95 nM | 32.7 nM
C[C@H]1C[C@@H](NC(=O)c2cc(C3CC3)on2)CCN1S(=O)(=O)[C@H]1CC[C@H](N)CC1 [compound 773, N-((2S,4S)-1-(((1r,4S)-4-aminocyclohexyl)sulfonyl)-2-methylpiperidin-4-yl)-5-cyclopropylisoxazole-3-carboxamide] | 1.03 nM | 17.7 nM
C[C@H]1C[C@@H](NC(=O)c2cc(C3CC3)on2)CCN1S(=O)(=O)N1CCC(C)(N)CC1 [compound 774, N-((2S,4S)-1-((4-amino-4-methylpiperidin-l-yl)sulfonyl)-2-methylpiperidin-4-yl)-5-cyclopropylisoxazole-3-carboxamide] | 1.04 nM | 25.6 nM
CC[C@@H]1C[C@H](NC(=O)c2cc(C3CC3)on2)CCN1S(=O)(=O)CC1CCN(C)CC1 [compound 775, 5-cyclopropyl-N-((2R,4R)-2-ethyl-1-(((1-methylpiperidin-4-yl)methyl)sulfonyl)piperidin-4-yl)isoxazole-3-carboxamide] | 1.07 nM | 14.4 nM
O=C(N[C@H]1C[C@H]2CC[C@@H](C1)N2S(=O)(=O)[C@H]1CC[C@H](NCc2ccccc2)CC1)c1cc(C2CC2)on1 [compound 776, N-((1R,3R,5S)-8-(((1r,4R)-4-(benzylamino)cyclohexyl)sulfonyl)-8-azabicyclo[3.2.1]octan-3-yl)-5-cyclopropylisoxazole-3-carboxamide] | 1.12 nM | 27.6 nM
CCC[C@@H]1C[C@H](NC(=O)c2cc(C3CC3)on2)CCN1S(=O)(=O)CC1CCN(C)CC1 [compound 777, 5-cyclopropyl-N-((2R,4R)-1-(((1-methylpiperidin-4-yl)methyl)sulfonyl)-2-propylpiperidin-4-yl)isoxazole-3-carboxamide] | 1.14 nM | 17 nM
O=C(N[C@H]1C[C@H]2CC[C@@H](C1)N2S(=O)(=O)CC1CCN(Cc2ccc(F)cc2)CC1)c1cc(C2CC2)on1 [compound 778, 5-cyclopropyl-N-((1R,3r,5S)-8-(((1-(4-fluorobenzyl)piperidin-4-yl)methyl)sulfonyl)-8-azabicyclo[3.2.1]octan-3-yl)isoxazole-3-carboxamide] | 1.18 nM | 44.8 nM
CCc1cc(C(=O)N[C@H]2C[C@H]3CC[C@@H](C2)N3S(=O)(=O)CC2CCN(CCCC(F)(F)F)CC2)no1 [compound 779, 5-ethyl-N-((1R,3r,5S)-8-(((1-(4,4,4-trifluorobutyl)piperidin-4-yl)methyl)sulfonyl)-8-azabicyclo[3.2.1]octan-3-yl)isoxazole-3-carboxamide] | 1.2 nM | 28.1 nM
C[C@H]1C[C@@H](NC(=O)c2cc(C3CC3)on2)CCN1S(=O)(=O)N1CCC(N(C)CCO)CC1 [compound 780, 5-cyclopropyl-N-((2S,4S)-1-((4-((2-hydroxyethyl)(methyl)amino)piperidin-1-yl)sulfonyl)-2-methylpiperidin-4-yl)isoxazole-3-carboxamide] | 1.21 nM | 23.9 nM
CCCN1CCC(CS(=O)(=O)N2[C@@H]3CC[C@H]2C[C@@H](NC(=O)c2cc(C4CC4)on2)C3)CC1 [compound 781, 5-cyclopropyl-N-((1R,3r,5S)-8-(((1-propylpiperidin-4-yl)methyl)sulfonyl)-8-azabicyclo[3.2.1]octan-3-yl)isoxazole-3-carboxamide] | 1.22 nM | 27 nM
CN1CCC2(CC1)CN(S(=O)(=O)N1[C@@H]3CC[C@H]1C[C@@H](NC(=O)c1cc(C4CC4)on1)C3)C2 [compound 782, 5-cyclopropyl-N-((1R,3r,5S)-8-((7-methyl-2,7-diazaspiro[3.5]nonan-2-yl)sulfonyl)-8-azabicyclo[3.2.1]octan-3-yl)isoxazole-3-carboxamide] | 1.23 nM | 30.1 nM
C[C@H]1C[C@@H](NC(=O)c2cc(C3CC3)on2)CCN1S(=O)(=O)C1CCC(CN)C1 (stereo partly drawn) [compound 783, N-((2S,4S)-1-((3-(aminomethyl)cyclopentyl)sulfonyl)-2-methylpiperidin-4-yl)-5-cyclopropylisoxazole-3-carboxamide] | 1.24 nM | 51.7 nM
C[C@H]1C[C@@H](NC(=O)c2cc(C3CC3)on2)CCN1S(=O)(=O)C[C@@H]1CC[C@@H](N)C1 [compound 784, N-((2S,4S)-1-((((1R,3R)-3-aminocyclopentyl)methyl)sulfonyl)-2-methylpiperidin-4-yl)-5-cyclopropylisoxazole-3-carboxamide] | 1.29 nM | 39.3 nM
CCN1CCC(CS(=O)(=O)N2[C@@H]3CC[C@H]2C[C@@H](NC(=O)c2cc(C4CC4)on2)C3)CC1 [compound 785, 5-cyclopropyl-N-((1R,3r,5S)-8-(((1-ethylpiperidin-4-yl)methyl)sulfonyl)-8-azabicyclo[3.2.1]octan-3-yl)isoxazole-3-carboxamide] | 1.36 nM | 44.1 nM
CN[C@H]1CC[C@H](S(=O)(=O)N2[C@@H]3CC[C@H]2C[C@@H](NC(=O)c2cc(C4CC4)on2)C3)CC1 [compound 786, 5-cyclopropyl-N-((1R,3R,5S)-8-(((1r,4R)-4-(methylamino)cyclohexyl)sulfonyl)-8-azabicyclo[3.2.1]octan-3-yl)isoxazole-3-carboxamide] | 1.37 nM | 35.8 nM
